Data from ChEMBL document CHEMBL5131391, “One-pot three-component synthesis of novel pyrazolo[3,4-b]pyridines as potent antileukemic agents” (Eur J Med Chem, 2022).
The source made the active and inactive calls. The calls are words filed in the database; no cut-off is given here.

Legend:
K562 = assay: Antiproliferative activity against human K562 cells assessed as reduction in cell viability incubated for 72 hrs by resazurin dye based assay; assay type: functional; details: K562, 72 h
RS4-11 [1] = assay: Antiproliferative activity against human RS4-11 cells assessed as reduction in cell viability incubated for 72 hrs by resazurin dye based assay; assay type: functional; details: RS4-11, 72 h
MV4-11 = assay: Antiproliferative activity against human MV4-11 cells assessed as reduction in cell viability incubated for 72 hrs by resazurin dye based assay; assay type: functional; details: MV4-11, 72 h
CCRF-CEM = assay: Antiproliferative activity against human CEM cells assessed as reduction in cell viability incubated for 72 hrs by resazurin dye based assay; assay type: functional
RS4-11 [2] = assay: Induction of cell cycle arrest in human RS4-11 cells assessed as accumulation of cells in G2/M phase at 1.25 to 10 uM measured after 72 hrs by PI staining based flow cytometry analysis; assay type: functional; details: dose 1.25-10 µM
ML-2 = assay: Antiproliferative activity against human ML-2 cells assessed as reduction in cell viability incubated for 72 hrs by resazurin dye based assay; assay type: functional; details: ML-2, 72 h
RS4-11 [3] = assay: Downregulation of HOXA9 protein expression in human RS4-11 cells at 5 to 20 uM measured after 24 hrs by Western blot analysis; assay type: functional, cell-based; details: dose 5-20 µM
RS4-11 [4] = assay: Downregulation of MEIS1 protein expression in human RS4-11 cells at 5 to 20 uM measured after 24 hrs by Western blot analysis; assay type: functional, cell-based; details: dose 5-20 µM
KOPN-8 = assay: Antiproliferative activity against human KOPN-8 cells assessed as reduction in cell viability incubated for 72 hrs by resazurin dye based assay; assay type: functional; details: KOPN-8, 72 h
RS4-11 [5] = assay: Induction of cell cycle arrest in human RS4-11 cells assessed as accumulation of cells in subG1 phase at 1.25 to 10 uM measured after 72 hrs by PI staining based flow cytometry analysis; assay type: functional; details: dose 1.25-10 µM

SMILES | IC50 (K562) | IC50 (RS4-11 [1]) | IC50 (MV4-11) | IC50 (CCRF-CEM) | Activity (RS4-11 [2]) | IC50 (ML-2) | Activity (RS4-11 [3]) | Activity (RS4-11 [4]) | IC50 (KOPN-8) | Activity (RS4-11 [5])
Cc1ccc(-c2nc3c(c(-c4ccccc4)nn3-c3ccccc3)c(-c3ccc4c(c3)OCO4)c2C#N)cc1 | 2 µM | 4.6 µM | 5.1 µM | 23.9 µM | Active | 7.7 µM | Active | Active | 0.7 µM | Active
COc1cc(-c2c(C#N)c(-c3cccs3)nc3c2c(-c2ccccc2)nn3-c2ccccc2)ccc1O | 15.4 µM |  | 44.2 µM | 37.3 µM |  |  |  |  |  | 
N#Cc1c(-c2ccc(F)cc2)nc2c(c(-c3ccccc3)nn2-c2ccccc2)c1-c1ccc(O)cc1 | 10.2 µM | 9.9 µM | 11.6 µM | > 25 µM | Active | 6.7 µM | Active | Active | 1.3 µM | Active
N#Cc1c(-c2cccs2)nc2c(c(-c3ccccc3)nn2-c2ccccc2)c1-c1ccc(O)cc1 | 11.6 µM |  | 34.2 µM | > 25 µM |  |  |  |  |  | 
